US20220260574A1, “METHODS OF DETERMINING THERAPIES BASED ON SINGLE CELL CHARACTERIZATION OF CIRCULATING TUMOR CELLS (CTCS) IN METASTATIC DISEASE” (Epic Sciences, Inc., priority 2017, published 2022)
Read-outs that look alike come from different tables or passages of the source.

Experiments:
mCRPC patients [1] = test system: mCRPC patients
mCRPC patients [2] = test: Single CTC sequencing of a 2nd line post taxane patient treated with enzalutamide; format: in vivo, human; conditions: 2nd line post taxane patient with lack of clonal diversity
Text: Phlebotomy samples were obtained at a Decision Point in management: therapy was chosen by the treating physician. Standard of care collection from 221 mCRPC patients at decision points. Baseline blood draw prior to A, E or T. Followed by PSA, time on drug, radiographic progression free (rPFS) & overall survival (OS). 9225 CTCs identified and characterized phenotypically. 741 CTCs from 31 patients were studied by whole genome CNV for clonality and gene amplifications/deletions. Patients were ranked based on how heterogeneous or diverse the cells were at each decision point. […] After a CTC is phenotypically measured, the coverslip is removed and the individual CTC is aspirated and put into an individual tube. The CTCs are amplified and prepared for sequencing (FIG. 15). Following sequencing informatics were performed to assess clonality and amplification/deletions (FIG. 15). […] Each patient sample was analyzed separately. Single CTC genomic CNV plots were curated individually versus other CTCs in patient sample. Clonality was characterized based on large genomic variations and focal amplifications or deletion of known driver alterations in at least 2 CTCs, for example, two cells from same patient with or without a loss of chromosome 5q or two clones from a patient with and without AR amplification (FIG. 16).

mCRPC patients [3] = test: Carboplatin therapy in mCRPC patients with high vs low pLST baseline CTCs (PSA response); format: in vivo, human
[4] = patients without vs with the presence of cell type K
[5] = one 8th line mCRPC patient with 4.3% baseline CTCs as high pLST
[6] = one 10th line mCRPC patient with 96% baseline CTCs as high pLST

Compound | Time on therapy (Tx) (mCRPC patients [1]; all patients, Abi vs Enza) | overall survival (OS) (mCRPC patients [1]; all patients, Abi vs Enza) | radiographic Progression Free Survival (rPFS) (mCRPC patients [1]; all patients, Enza vs Abi, p=0.025) | HR (hazards of death, overall survival), feature Therapy (mCRPC patients [1]; multivariate cox model, =0 if Abi, =1 if Enza, p 0.4167) | HR (hazards of death, overall survival), feature Cell Type K: Therapy Interaction (mCRPC patients [1]; multivariate cox model, =0 if not K+ and Enza, =1 if K+ and Enza, p 0.0306) | hazards of death, therapy favoured in multivariate cox proportional hazards model (mCRPC patients [1]; patients without the presence of cell type K) | OS (mCRPC patients [1]; patients without the presence of cell type K, Enza vs Abi) | rPFS (mCRPC patients [1]; patients without the presence of cell type K, Enza vs Abi, p=0.006) | OS (mCRPC patients [1]; [4]) | Time on Tx (mCRPC patients [1]; [4]) | rPFS (mCRPC patients [1]; [4]) | response to therapy (mCRPC patients [2]) | 12 week PSA change (mCRPC patients [3]; [5]) | response to carboplatin therapy (mCRPC patients [3]; [5]) | 12 week PSA change (mCRPC patients [3]; [6]) | response to carboplatin therapy (mCRPC patients [3]; [6])
CNC(=O)c1ccc(N2C(=S)N(c3ccc(C#N)c(C(F)(F)F)c3)C(=O)C2(C)C)cc1F [enzalutamide] | similar | similar | significantly better | 0.6543 | 5.2792 | more favorable | no difference | significantly better | significant improvement | significant improvement | significant improvement | responded | – | – | – | –
N.N.O=C([O-])C1(C(=O)[O-])CCC1.[Pt+2] [carboplatin] | – | – | – | – | – | – | – | – | – | – | – | – | +2.1% | did not respond | −50.1% | responded
